EP0533925A1, “OPTICAL ISOMER OF R-FORM OF DIPHENYL ETHER DERIVATIVE AND HERBICIDE CONTAINING THE SAME AS ACTIVE INGREDIENT” (TEIJIN LIMITED, priority 1990, dated 1991)
Structures can show the parent of a compound that is named as a salt.

Columns and labels:
Type in all cases: in vivo
Parameters in all cases: key: 0 means the state where the plants are as sound as before the application of the active compound; 1, 2, 3 and 4 mean varying degrees of the enfeebled state of the plants between 0 and 5; 1, 2, 3 and 4 mean varying degrees of the enfeebled state of the plants between 0 and 5; 1, 2, 3 and 4 mean varying degrees of the enfeebled state of the plants between 0 and 5; 1, 2, 3 and 4 mean varying degrees of the enfeebled state of the plants between 0 and 5; 5 is the state where the plants are withered or killed by application of the active compound
[1] = system: Chenopodium album var. centrorubrum; assay: Herbicidal activity, foliar application of single compounds (Test Examples 1 to 5); conditions: 3 weeks after application
Experimental: (§1) In these examples, all parts means parts by weight, unless otherwise noted. The herbicidal activity was evaluated on a scale of 6 degrees. In other words, 0 means the state where the plants are as sound as before the application of the active compound, while 5 is the state where the plants are withered or killed by application of the active compound, and 1, 2, 3 and 4 mean varying degrees of the enfeebled state of the plants between 0 and 5.
(§2) The diphenyl ethers shown in Table 2 were added to 5000 parts of a mixture of acetone and water (1 : 1 by volume), and 2.6 parts of a nonionic surfactant (Sorpol 2680, tradename) was added to form a solution, so that the ether becomes the prescribed amount in each solution.
(§3) Seeds of plants were sown in the soil, cultivated for 2 to 3 weeks, after germination, then the plants were used for the tests.
(§4) The prepared solution was applied to these plants at the prescribed rate of application in total, then the plants were continuously cultivated for 3 weeks without applying the solution.
(§5) The alphabetical symbols in Tables 2 and 3 represent the following plants, respectively: a: Digitaria adscendens b: Setaria viridis c: Sorghum halepense d: Chenopodium album var. centrorubrum e: Amaranthus mangostanus f: Astragalus sinicus g: Abutilon theophrosti h: Solanum nigrum i: Xanthium strumarium j: Soybean; Glycine max k: Corn; Zea mays Table 2

Abutilon theophrosti [2] = assay: as above; conditions: 3 weeks after application
Experimental: as §1, §2, §3, §4, §5

Astragalus sinicus [3] = assay: as above; conditions: 3 weeks after application
Experimental: as §1, §2, §3, §4, §5

Amaranthus mangostanus = assay: as above; conditions: 3 weeks after application
Experimental: as §1, §2, §3, §4, §5

Corn; Zea mays = assay: Herbicidal activity, spray of diphenyl ether with N-phosphonomethylglycine derivative (Test Examples 6 to 10); conditions: Application 0.375 Kg/ha (117) alone
Experimental: as §1
(§6) In each run, the diphenyl ether derivatives and the N-phosphonomethylglycine derivatives shown in Table 3 (in the indicated mixing ratios) was dissolved in 16 parts by volume of a mixture of water and acetone (1 : 1 by volume; containing 0.05 % of a nonionic surfactant, Sorpol-2680) in the indicated mixing ratio, respectively, to prepare spray solutions.
(§7) The plants tested were grown in vinyl resin pots (diameter 10 cm) filled with soil in a green house for 2 to 3 weeks after germination from seeds or tubers.
(§8) The spray solution was applied to the plants so that the total volume sprayed became 4 cc/100 cm², and the herbicidal activity was examined.
as §5

Abutilon theophrosti [4] = assay: as above; conditions: Application 0.375 Kg/ha (117) alone
Experimental: as §1, §6, §7, §8, §5

Xanthium strumarium = assay: as above; conditions: Application 0.375 Kg/ha (117) alone
Experimental: as §1, §6, §7, §8, §5

Astragalus sinicus [5] = assay: as above; conditions: Application 0.375 Kg/ha (117) alone
Experimental: as §1, §6, §7, §8, §5

[6] = Rate of Application 0.016 kg/ha
[7] = Rate of Application 0.031 kg/ha

SMILES	herbicidal activity, Plants d [1, 6]	herbicidal activity, Plants d [1, 7]	herbicidal activity, Plants g (Abutilon theophrosti [2]; [6])	herbicidal activity, Plants g (Abutilon theophrosti [2]; [7])	herbicidal activity, Plants f (Astragalus sinicus [3]; [6])	herbicidal activity, Plants f (Astragalus sinicus [3]; [7])	herbicidal activity, Plants e (Amaranthus mangostanus; [6])	herbicidal activity, Plants e (Amaranthus mangostanus; [7])	herbicidal activity, Plants k (Corn; Zea mays; 3 days after treatment)	herbicidal activity, Plants k (Corn; Zea mays; 7 days after treatment)	herbicidal activity, Plants k (Corn; Zea mays; 14 days after treatment)	herbicidal activity, Plants g (Abutilon theophrosti [4]; 3 days after treatment)	herbicidal activity, Plants g (Abutilon theophrosti [4]; 7 days after treatment)	herbicidal activity, Plants g (Abutilon theophrosti [4]; 14 days after treatment)	herbicidal activity, Plants i (Xanthium strumarium; 3 days after treatment)	herbicidal activity, Plants i (Xanthium strumarium; 7 days after treatment)	herbicidal activity, Plants i (Xanthium strumarium; 14 days after treatment)	herbicidal activity, Plants f (Astragalus sinicus [5]; 3 days after treatment)	herbicidal activity, Plants f (Astragalus sinicus [5]; 7 days after treatment)	herbicidal activity, Plants f (Astragalus sinicus [5]; 14 days after treatment)
COC(=O)C(C)Oc1cc(Oc2ccc(C(F)(F)F)cc2Cl)ccc1C#N (stereo not drawn) [Compound (1), Methyl α-[2-cyano-5-(2-chloro-4-trifluoromethylphenoxy)phenoxy]propionate]	5	5	5	5	5	5	5	5												
O=C(O)CNCP(=O)(O)O [Compound (117), N-phosphonomethylglycine isopropylammonium salt]									0	0	0	0	1	1	0	0	1	0	0	0
